# Test results published in publication PMC11637378, “Optogenetic screening of MCT1 activity implicates a cluster of non-steroidal anti-inflammatory drugs (NSAIDs) as inhibitors of lactate transport” (PLOS ONE, 2024).
# What was measured:
# parent strain (SAWy518) [1] = assay: microbe, parasite or virus in culture; design: species or system Saccharomyces cerevisiae SAWy518; Off-target growth counter-screen, OD600 as per cent of untreated wells, strain lacking MCT1; conditions: 18.5 h; sheet Primary Screen - final;; off-target growth of parent strain, about 18 h
# Method: Cells were grown for 18 hours prior to OD measurement. Fill represents manual compound grouping based on compound class or target. OD600 is reported in Tecan units. […] The drug library used in this study for the initial screen and rescreen was provided by the Small Molecule Screening Center at Princeton University, through a collaboration with Dr. Hahn Kim. […] Follow-up analysis (IC50 determinations) on library compounds was performed using compounds purchased from outside sources. […] Stocks were then diluted 100-fold into media containing 0.01 OD600 inoculation of yeast, to achieve the final concentrations listed. Where compounds were added manually (for example 10 μM AZD3965 addition) stock concentrations were diluted by a factor of 100-fold regardless of scale, resulting in a final concentration of 1% v/v DMSO which is well tolerated by yeast.
# parent strain (SAWy518) [2] = tested on: parent strain (SAWy518)
Compound,viability at 10 µM (parent strain (SAWy518) [1]) [%],OffScreen_percentage (parent strain (SAWy518) [2]) [percentage],Offscreen_18hr (parent strain (SAWy518) [2]),Offscreen_24hr (parent strain (SAWy518) [2]),Offscreen_42hr (parent strain (SAWy518) [2]),Read_percentage (parent strain (SAWy518) [2]) [percentage]
O=C(O)Cc1ccccc1Nc1c(Cl)cccc1Cl [Diclofenac],101,,,,,
C/C=C(/C(=C/C)c1ccc(O)cc1)c1ccc(O)cc1 [Dienestrol],99.3,99.2565,0.801,0.8973,0.9599,99.2565
CC/C(=C(/CC)c1ccc(O)cc1)c1ccc(O)cc1 [Diethylstilbestrol],103,102.565,0.8277,0.9171,0.9776,102.565
C[C@@H]1CC[C@@]2(OC1)O[C@H]1[C@@H](O)[C@H]3[C@@H]4CC[C@H]5C[C@@H](O[C@@H]6O[C@H](CO)[C@H](O[C@@H]7O[C@H](CO)[C@@H](O)[C@H](O[C@@H]8OC[C@@H](O)[C@H](O)[C@H]8O)[C@H]7O[C@@H]7O[C@H](CO)[C@H](O)[C@H](O[C@@H]8O[C@H](CO)[C@@H](O)[C@H](O)[C@H]8O)[C@H]7O)[C@H](O)[C@H]6O)[C@H](O)C[C@]5(C)[C@H]4CC[C@]3(C)[C@H]1[C@@H]2C [Digitonin],103,103.408,0.8345,0.9181,0.9758,103.408
O=C1Nc2ccc(Cl)cc2[C@@](C#CC2CC2)(C(F)(F)F)O1 [Efavirenz],96.8,96.803,0.7812,0.8701,0.9373,96.803
C=CCOC(Cn1ccnc1)c1ccc(Cl)cc1Cl (centres unmarked) [Enilconazole],100,100.372,0.81,0.8908,0.9485,100.372
O=C(O)c1ccccc1-c1c2cc(I)c(=O)c(I)c-2oc2c(I)c(O)c(I)cc12 [Erythrosine],101,,,,,
COc1cccc2c1[C@@H]1CN(CCCCn3c(=O)[nH]c4c(sc5ncc(-c6ccccc6)nc54)c3=O)C[C@@H]1CO2 [Fiduxosin],97.5,97.5341,0.7871,0.8863,0.944,97.5341
OC(Cn1cncn1)(Cn1cncn1)c1ccc(F)cc1F [Fluconazole],99.6,99.6283,0.804,0.8953,0.9483,99.6283
CC1(C)O[C@@H]2C[C@H]3[C@@H]4C[C@H](F)C5=CC(=O)C=C[C@]5(C)[C@H]4[C@@H](O)C[C@]3(C)[C@]2(C(=O)CO)O1 [Flunisolide],95.6,95.601,0.7715,0.8893,0.9469,95.601
CCn1cc(-c2ccnc3[nH]c(-c4cccc(CN(C)C)c4)cc23)c(-c2ccc(NC(=O)N(C)C)cc2)n1 [GSK1070916],97.4,97.373,0.7858,0.8818,0.9396,97.373
COc1ncc(-c2ccc3nccc(-c4ccnnc4)c3c2)cc1NS(=O)(=O)c1ccc(F)cc1F [GSK2126458],90.1,90.1487,0.7275,0.8997,0.9503,90.1487
CC(Cc1ccc(O)c(O)c1)C(C)Cc1ccc(O)c(O)c1 (centres unmarked) [Nordihydroguaiaretic_acid],101,,,,,
CN1C(C(=O)Nc2ccccn2)=C(O)c2ccccc2S1(=O)=O [Piroxicam],95.2,,,,,
O=c1c(O)c(-c2ccc(O)c(O)c2)oc2cc(O)cc(O)c12 [Quercetin],96.1,,,,,
CS(=O)(=O)c1ccc(C2=C(c3ccccc3)C(=O)OC2)cc1 [Rofecoxib],104,,,,,
CC1=C(CC(=O)O)c2cc(F)ccc2/C1=C\c1ccc([S+](C)[O-])cc1 (centres unmarked) [Sulindac],103,,,,,
COCCN1C2=C(C(=O)c3ccccc3C2=O)N(Cc2cnccn2)C1C (centres unmarked) [YM155],104,,,,,
